{"source": "patent US6566361B2", "about": "“Azapirone pain treatment” (priority 1999, dated 2003)", "key": {"albino rats [1]": {"system": "albino rats", "experiment": "Preclinical model of chronic pain (rat formalin test, phase II flinches)", "type": "in vivo", "details": "single ip delivery: morphine 4 mg/kg, buspirone 3 mg/kg, acetaminophen 300 mg/kg", "method": "To assess responses to a chronic stimulus (subcutaneous formalin injection), animals are first placed in clear observation boxes for a 30 min acclimation period prior to testing. Animals are subsequently removed and the dorsum of one hindpaw is injected s.c. with 50 microliters of 2.5% formalin. […] The total number of flinches is computer scored during the chronic phase (10-90 min after formalin) using a commercially available device (George Ozaki, Automated Nocicpetion Analyzer, Department of Anesthesiology, University of California, San Diego; La Jolla, Calif.) which automates the manual procedure described previously by Wheeler-Aceto et al. (Pain 40:229-238, 1990). All drugs are delivered at 30 min prior to formalin injection by the intraperitoneal (i.p.) route in a volume of 2 ml/kg. […] For acetaminophen (Sigma, A7085) the vehicle was 40% polyethylene glycol 400 (PEG-400), 10% EtOH, 15% Tween 80, and 35% deionized H2O (PETW). Acetaminophen was disolved sequentially in two parts: 1) first into a solution of 80% PEG 400+20% EtOH, and 2) then slowly added to it was an equal volume of 30% Tween 80+70% deionized H2O (sonicated as needed). Each animal received two injections at time zero. Specifically, animals were tested in one of the following 5 treatment conditions (abbreviations used in figures are shown under ‘Key” below): […]"}, "rats": {"system": "rats", "experiment": "Preclinical model of neuropathic pain (Chung spinal nerve L5/L6 ligation, von Frey test)", "type": "in vivo, rat", "details": "buspirone 3 mg/kg ip; acetaminophen 200 mg/kg ip; or both coadministered", "text": "J Neurosci Methods. […] For acetaminophen (Sigma, A7085) the vehicle was 40% polyethylene glycol 400 (PEG-400), 10% EtOH, 15% Tween 80, and 35% deionized H2O (PETW). Acetaminophen was disolved sequentially in two parts: 1) first into a solution of 80% PEG 400+20% EtOH, and 2) then slowly added to it was an equal volume of 30% Tween 80+70% deionized H2O (sonicated as needed). Each animal received two injections at time zero."}, "mouse": {"system": "mouse", "experiment": "Mouse hot plate test (Eddy et al.)", "type": "in vivo", "details": "buspirone to acetaminophen weight ratios of 1:3, 1:10, and 1:30"}, "[2]": {"details": "in vivo; cited from earlier work"}, "[3]": {"details": "acute high doses; cited from earlier work"}, "[4]": {"details": "in vivo; cited from earlier work", "remark": "listed apart in the source"}, "albino rats [5]": {"system": "albino rats", "experiment": "Rat hindpaw withdrawal (thermal escape) test for analgesia (acute pain)", "type": "in vivo", "details": "for Hindpaw thermal escape latency from 30 min to 120 min: ipsapirone 20 mg/kg ip, acetaminophen 300 mg/kg ip, or both coadministered, vs vehicle; for Thermal escape latencies vs vehicle, single administration: tandospirone 5 mg/kg ip alone, acetaminophen 300 mg/kg ip alone", "text": "To assess the thermally evoked paw-withdrawal response, a commercially available device was used. Specifics of device construction and operation have been published previously (Dirig D M, Salami A, Rathbun M L, Ozaki G T, Yaksh T L. Characterization of variables defining hindpaw withdrawal latency evoked by radiant thermal stimuli. J Neurosci Methods. Oct. 3, 1997; 76(2):183-91). This device is comprised of a glass surface on which the rats were placed individually in Plexiglas cubicles (9×22×25 cm). The surface is maintained at 30° C. by a feedback-controlled, under-glass, forced-air heating system. The thermal nociceptive stimulus originates from a projection bulb below the glass that can be manipulated in a two-dimensional axis on ball bearing slides. This apparatus allows the stimulus to be delivered separately to each hind paw with the aid of an angled mirror mounted on the stimulus source. A timer is actuated with the light source, and escape latency is defined as the time between stimulus onset and the display of a brisk paw withdrawal (detected by photodiode motion sensors that stops the timer and terminates the stimulus; cut-off time for a non-response is 20 sec which triggers automatic termination of the stimulus). In the present study, animals are placed in test boxes for 30 min acclimation and then baseline escape latency is assessed separately for each hindpaw (left and right) at −15 min. All drugs are delivered at 0 min by the intraperitoneal (i.p.) route in a volume of 3 ml/kg. […] For acetaminophen (Sigma, A7085) the vehicle was 40% polyethylene glycol 400 (PEG-400), 10% EtOH, 15% Tween 80, and 35% deionized H2O (PETW). Acetaminophen was disolved sequentially in two parts: 1) first into a solution of 80% PEG 400+20% EtOH, and 2) then slowly added to it was an equal volume of 30% Tween 80+70% deionized H2O (sonicated as needed). Other azapirone vehicles were Gepirone (saline), ipsapirone (deionized H2O), and tandospirone (DMA+PETW), DMA=5% dimethylacetamide. Each animal received two injections at time zero. Specifically, animals were tested in one of the following 10 treatment conditions (abbreviations used in figures are shown under ‘Key” below):\nFollowing drug administration, thermal escape latencies are measured at regular intervals (e.g., 15, 30, 60, 90 and 120 min, mean of both paws is used for statistical analysis)."}, "[6]": {"experiment": "Rat plasma concentrations of buspirone and APAP over time", "type": "in vivo", "text": "It also has agonistic action at presynaptic D2 dopaminergic receptors. Acetaminophen is believed to act by elevating the pain threshold in patients."}}, "data": [{"molecule": "8-[4-[4-(2-pyrimidinyl)1-piperazinyl]butyl-8-azaspiro(4,5)-decane-7,9-dione [buspirone]", "values": [{"measurement": "Formalin-induced flinches relative to vehicle", "setting": "albino rats [1]", "value": "significantly suppressed"}, {"measurement": "von Frey thresholds, injured side (neuropathic pain responses)", "setting": "rats", "value": "not significantly different from vehicle"}, {"measurement": "Potentiation of acetaminophen in hot plate test", "setting": "mouse", "value": "demonstrated potentiation of acetaminophen"}, {"measurement": "Type of analgesia produced", "setting": "[2]", "value": "non-opioid type of analgesia"}, {"measurement": "Relief of neuropathic pain", "setting": "[3]", "value": "did not relieve neuropathic pain"}, {"measurement": "Effect on xylazine-induced antinociception", "setting": "[4]", "value": "attenuate xylazine-induced antinociception"}]}, {"molecule": "CC(=O)Nc1ccc(O)cc1", "note": "[acetaminophen]", "values": [{"measurement": "Hindpaw thermal escape response, Area Under the Curve (AUC) from thermal escape latencies (sec) over 120 min post injection", "setting": "albino rats [5]; acetaminophen 300 mg/kg ip, compared to vehicle", "value": "elevated significantly above vehicle"}, {"measurement": "Hindpaw thermal escape latency from 30 min to 120 min", "setting": "albino rats [5]", "value": "a comparably high level of analgesia was not consistently attached throughout this same time period"}, {"measurement": "Thermal escape latencies vs vehicle, single administration", "setting": "albino rats [5]", "value": "did not differ from vehicle until 90 min after injection"}, {"measurement": "Formalin-induced flinches relative to vehicle", "setting": "albino rats [1]", "value": "significantly suppressed"}, {"measurement": "von Frey thresholds, injured side (neuropathic pain responses)", "setting": "rats", "value": "partial reversal toward normal at 30-120 min"}, {"measurement": "Plasma concentrations over time, alone vs in combination", "setting": "[6]", "value": "do not differ significantly whether given alone or in combination"}]}, {"molecule": "O=C1c2ccccc2S(=O)(=O)N1CCCCN1CCN(c2ncccn2)CC1", "note": "[ipsapirone]", "values": [{"measurement": "Hindpaw thermal escape latency from 30 min to 120 min", "setting": "albino rats [5]", "value": "a comparably high level of analgesia was not consistently attached throughout this same time period"}]}, {"molecule": "CN1CC[C@]23c4c5ccc(O)c4O[C@H]2[C@@H](O)C=C[C@H]3[C@H]1C5", "note": "[morphine]", "values": [{"measurement": "Formalin-induced flinches relative to vehicle", "setting": "albino rats [1]", "value": "significantly suppressed"}]}, {"molecule": "O=C1[C@@H]2[C@H]3CC[C@H](C3)[C@@H]2C(=O)N1CCCCN1CCN(c2ncccn2)CC1", "note": "[tandospirone]", "values": [{"measurement": "Thermal escape latencies vs vehicle, single administration", "setting": "albino rats [5]", "value": "did not differ from vehicle until 90 min after injection"}]}]}
